Results as given in US12414565B2, “Pyridazine (THIO)amides as fungicidal compounds” (Bayer Aktiengesellschaft, priority 2018, dated 2025).

How the values were obtained:
Alternaria brassicae = assay: In vivo preventive test on Alternaria brassicae (leaf spot on radish or cabbage); settings: 144 h, 500 ppm of active ingredient, preventive spray on radish or cabbage, evaluated 6 days after inoculation, 100% = no disease, read-out: efficacy
Description: (§1) The active ingredients were made soluble and homogenized in a mixture of Dimethyl sulfoxide/Acetone/Tween® 80 and then diluted in water to the desired concentration.
The young plants of radish or cabbage were treated by spraying the active ingredient prepared as described above. Control plants were treated only with an aqueous solution of Acetone/Dimethyl sulfoxide/Tween® 80.
After 24 hours, the plants were contaminated by spraying the leaves with an aqueous suspension of Alternaria brassicae spores. The contaminated radish or cabbage plants were incubated for 6 days at 20° C. and at 100% relative humidity.
The test was evaluated 6 days after the inoculation. 0% means an efficacy which corresponds to that of the control plants while an efficacy of 100% means that no disease was observed.

Botrytis cinerea = assay: In vivo preventive test on Botrytis cinerea (grey mould); settings: 500 ppm of active ingredient, preventive spray on gherkin or cabbage, evaluated 4 to 5 days after inoculation, 100% = no disease, read-out: efficacy
Description: as §1
The young plants of gherkin or cabbage were treated by spraying the active ingredient prepared as described above. Control plants were treated only with an aqueous solution of Acetone/Dimethyl sulfoxide/Tween® 80.
After 24 hours, the plants were contaminated by spraying the leaves with an aqueous suspension of Botrytis cinerea spores. The contaminated gherkin plants were incubated for 4 to 5 days at 17° C. and at 90% relative humidity. The contaminated cabbage plants were incubated for 4 to 5 days at 20° C. and at 100% relative humidity.
The test was evaluated 4 to 5 days after the inoculation. 0% means an efficacy which corresponds to that of the control plants while an efficacy of 100% means that no disease was observed.

Pyrenophora teres = assay: In vivo preventive test on Pyrenophora teres (net blotch on barley); settings: 240 h, 500 ppm of active ingredient, preventive spray on barley, evaluated 10 days after inoculation, 100% = no disease, read-out: efficacy
Description: as §1
The young plants of barley were treated by spraying the active ingredient prepared as described above. Control plants were treated only with an aqueous solution of Acetone/Dimethyl sulfoxide/Tween® 80.
After 24 hours, the plants were contaminated by spraying the leaves with an aqueous suspension of Pyrenophora teres spores. The contaminated barley plants were incubated for 48 hours at 20° C. and at 100% relative humidity and then for 8 days at 20° C. and at 70-80% relative humidity.
The test was evaluated 10 days after the inoculation. 0% means an efficacy which corresponds to that of the control plants while an efficacy of 100% means that no disease was observed.

Sphaerotheca fuliginea = assay: In vivo preventive test on Sphaerotheca fuliginea (powdery mildew on cucurbits); settings: Podosphaera fuliginea, 192 h; 500 ppm of active ingredient; preventive spray on gherkin; evaluated 8 days after inoculation; 100% = no disease; read-out: efficacy
Description: as §1
The young plants of gherkin were treated by spraying the active ingredient prepared as described above. Control plants were treated only with an aqueous solution of Acetone/Dimethyl sulfoxide/Tween® 80.
After 24 hours, the plants were contaminated by spraying the leaves with an aqueous suspension of Sphaerotheca fuliginea spores. The contaminated gherkin plants were incubated for 8 days at 20° C. and at 70-80% relative humidity.
The test was evaluated 8 days after the inoculation. 0% means an efficacy which corresponds to that of the control plants while an efficacy of 100% means that no disease was observed.

Alternaria alternata = Alternaria alternata in vitro cell test; format: cell-based; settings: 120 h, 20 ppm of active ingredient, liquid culture, 5 days incubation, absorbance, read-out: efficacy (inhibition of fungal growth)
Description: (§2) [table] Fungicides were solubilized in DMSO and the solution used to prepare the required range of concentrations. The final concentration of DMSO used in the assay was <1%. A spore suspension of A. alternata was prepared and diluted to the desired spore density. Fungicides were evaluated for their ability to inhibit spore germination and mycelium growth in liquid culture assay. The compounds were added in the desired concentration to the culture medium with spores. After 5 days incubation, fungi-toxicity of compounds was determined by spectrometric measurement of mycelium growth. Inhibition of fungal growth was determined by comparing the absorbance values in wells containing the fungicides with the absorbance in control wells without fungicides.

[1] = tested on: Colletotrichum lindemuthianum; assay: Colletotrichum lindemuthianum in vitro cell test; format: cell-based; settings: 144 h, 20 ppm of active ingredient, liquid culture, 6 days incubation, absorbance, read-out: efficacy (inhibition of fungal growth)
Description: as §2, with “was ≤1%.” for “was <1%.”, “of C. lindemuthianum” for “of A. alternata”, “inhibit spores” for “inhibit spore”, “After 6” for “After 5”

[2] = Measurement of Log P values by HPLC on reversed phase columns (EEC directive 79/831 Annex V.A8); format: physicochemical
Description: Measurement of Log P values as provided herein was performed according to EEC directive 79/831 Annex V.A8 by HPLC (High Performance Liquid Chromatography) on reversed phase columns with the following methods: • ^[a]
If more than one Log P value is available within the same method, all the values are given and separated by “+”.
Lambda-max-values were determined using UV-spectra from 200 nm to 400 nm and the peak values of the chromatographic signals

Work on `Cc1ccc(CCNC(=S)c2cc(C)nnc2Oc2cccc(C(F)(F)F)c2)c(C)c1` [I-094, N-[2-(2,4-dimethylphenyl)ethyl]-6-methyl-3-[3-(trifluoromethyl)phenoxy]pyridazine-4-carbothioamide] yielded a pest or weed control at 500 ppm (Alternaria brassicae) of 90 to 100%, a pest or weed control at 500 ppm (Botrytis cinerea) of 90 to 100% and a pest or weed control at 500 ppm (Pyrenophora teres) of 80 to 89%. For the same molecule, the pest or weed control at 500 ppm (Sphaerotheca fuliginea) was 90 to 100%, the inhibition at 20 ppm (Alternaria alternata) was 80 to 89% and the inhibition at 20 ppm [1] was 90 to 100%.
`O=C(NCC(F)(F)c1ccc(Br)cc1Cl)c1cc(C2CC2)nnc1Oc1cccc(C(F)(F)F)c1` [I-312] showed a LogP ([2]; method [a]) of 4.79 and a LogP ([2]; method [b]) of 4.68.
In the case of `O=C(O)c1ccnnc1Oc1cccc(C(F)(F)F)c1` [1-129], the LogP ([2]; method [a]: LC-UV, acidic range, 0.1% formic acid in water / acetonitrile, Table 3, formula (1)) was 1.47^[a].
`Cc1ccc(C(F)(F)CNC(=O)c2cc(C)nnc2Oc2cccc(C3CCC3)c2)c(C)c1` [I-564, 3-(3-cyclobutylphenoxy)-N-[2-(2,4-dimethylphenyl)-2,2-difluoro-ethyl]-6-methyl-pyridazine-4-carboxamide] gave a pest or weed control at 500 ppm (Alternaria brassicae) of 80 to 89%, a pest or weed control at 500 ppm (Botrytis cinerea) of 90 to 100% and a pest or weed control at 500 ppm (Sphaerotheca fuliginea) of 80 to 89%. It also gave an inhibition at 20 ppm (Alternaria alternata) of 90 to 100% and an inhibition at 20 ppm [1] of 70 to 79%.
With `Cc1ccc(C(F)(F)CNC(=O)c2c(Oc3cccc(C4CC4)c3F)nnc(Cl)c2C)c(Br)c1` [I-840] the LogP ([2]; method marked [a], HPLC on reversed phase columns) was 4.57^[a].
Molecule `COC(=O)N(CC(F)(F)c1ccc(C)cc1C)C(=O)c1cc(Cl)nnc1Oc1cccc(C(F)(F)F)c1` [I-335, methyl N-[6-chloro-3-[3-(trifluoromethyl)phenoxy]pyridazine-4-carbonyl]-N-[2-(2,4-dimethylphenyl)-2,2-difluoro-ethyl]carbamate] has a pest or weed control at 500 ppm (Alternaria brassicae) of 80 to 89%, a pest or weed control at 500 ppm (Botrytis cinerea) of 90 to 100% and a pest or weed control at 500 ppm (Sphaerotheca fuliginea) of 80 to 89%. The inhibition at 20 ppm (Alternaria alternata) was 70 to 79% and the inhibition at 20 ppm [1] was 80 to 89%.
`CSc1cc(C(=O)NCC(F)(F)c2ccc(C)cc2C)c(Oc2cccc(C(F)(F)F)c2)nn1` [I-767, N-[2-(2,4-dimethylphenyl)-2,2-difluoro-ethyl]-6-methylsulfanyl-3-[3-(trifluoromethyl)phenoxy]pyridazine-4-carboxamide] showed a pest or weed control at 500 ppm (Alternaria brassicae) of 90 to 100%, a pest or weed control at 500 ppm (Botrytis cinerea) of 90 to 100% and a pest or weed control at 500 ppm (Pyrenophora teres) of 80 to 89%. For the same molecule, the pest or weed control at 500 ppm (Sphaerotheca fuliginea) was 90 to 100%, the inhibition at 20 ppm (Alternaria alternata) was 90 to 100% and the inhibition at 20 ppm [1] was 90 to 100%.
Molecule `CCc1c(Cl)nnc(Oc2cccc(C(F)(F)F)c2)c1C(=O)NCC(F)(F)c1ccc(Cl)cc1` [I-254, 6-chloro-N-[2-(4-chlorophenyl)-2,2-difluoro-ethyl]-5-ethyl-3-[3-(trifluoromethyl)phenoxy]pyridazine-4-carboxamide] has a pest or weed control at 500 ppm (Alternaria brassicae) of 90 to 100%, a pest or weed control at 500 ppm (Botrytis cinerea) of 90 to 100% and a pest or weed control at 500 ppm (Sphaerotheca fuliginea) of 90 to 100%. For the same molecule, the inhibition at 20 ppm (Alternaria alternata) was 90 to 100% and the inhibition at 20 ppm [1] was 90 to 100%.
In the case of `Cc1ccc(C(F)(F)CNC(=O)c2cc(C)nnc2Cl)c(C)c1` [3-06], the LogP ([2]; method [a]: LC-UV, acidic range, 0.1% formic acid in water / acetonitrile, Table 7, formula (3)) was 3.20^[a].
Molecule `Cc1cc(C(=O)NCCc2ccc(C(F)F)cn2)c(Oc2cccc(C(F)(F)F)c2)nn1` [I-525] has a LogP ([2]; LogP method [a]) of 2.57 and a LogP ([2]; LogP method [b]) of 2.71.
With `Cc1ccc(C(F)(F)CNC(=O)c2c(Oc3cccc(C(F)(F)F)c3)nnc(Cl)c2NC2COC2)c(C)c1` [I-408, 6-chloro-N-[2-(2,4-dimethylphenyl)-2,2-difluoro-ethyl]-5-(oxetan-3-ylamino)-3-[3-(trifluoromethyl)phenoxy]pyridazine-4-carboxamide] the pest or weed control at 500 ppm (Alternaria brassicae) was 90 to 100%, the pest or weed control at 500 ppm (Botrytis cinerea) was 90 to 100% and the pest or weed control at 500 ppm (Pyrenophora teres) was 70 to 79%. The pest or weed control at 500 ppm (Sphaerotheca fuliginea) was 90 to 100%, the inhibition at 20 ppm (Alternaria alternata) was 90 to 100% and the inhibition at 20 ppm [1] was 90 to 100%.
In the case of `CC(=O)c1cc(C(=O)NCC(F)c2ccc(Br)cc2Cl)c(Oc2cccc(C(F)(F)F)c2)nn1` (racemic) [I-605, 6-acetyl-N-[rac-2-(4-bromo-2-chloro-phenyl)-2-fluoro-ethyl]-3-[3-(trifluoromethyl)phenoxy]pyridazine-4-carboxamide], the pest or weed control at 500 ppm (Alternaria brassicae) was 90 to 100%, the pest or weed control at 500 ppm (Botrytis cinerea) was 70 to 79% and the pest or weed control at 500 ppm (Pyrenophora teres) was 70 to 79%. It also gave a pest or weed control at 500 ppm (Sphaerotheca fuliginea) of 90 to 100%, an inhibition at 20 ppm (Alternaria alternata) of 90 to 100% and an inhibition at 20 ppm [1] of 90 to 100%.
`Cc1cc(C2CC2)ccc1C(F)(F)CNC(=O)c1cc(Cl)nnc1Oc1cccc(C(F)(F)F)c1` [I-240, 6-chloro-N-[2-(4-cyclopropyl-2-methyl-phenyl)-2,2-difluoro-ethyl]-3-[3-(trifluoromethyl)phenoxy]pyridazine-4-carboxamide] showed a pest or weed control at 500 ppm (Alternaria brassicae) of 90 to 100%, a pest or weed control at 500 ppm (Botrytis cinerea) of 90 to 100% and a pest or weed control at 500 ppm (Pyrenophora teres) of 70 to 79%. The pest or weed control at 500 ppm (Sphaerotheca fuliginea) was 90 to 100%, the inhibition at 20 ppm (Alternaria alternata) was 90 to 100% and the inhibition at 20 ppm [1] was 90 to 100%.
`O=C(NCC(F)(F)c1ccc(Br)cc1Cl)c1cc(Cl)nnc1Oc1cccc(F)c1F` [I-530, N-[2-(4-bromo-2-chloro-phenyl)-2,2-difluoro-ethyl]-6-chloro-3-(2,3-difluorophenoxy)pyridazine-4-carboxamide] gave a pest or weed control at 500 ppm (Alternaria brassicae) of 90 to 100%, a pest or weed control at 500 ppm (Botrytis cinerea) of 90 to 100% and a pest or weed control at 500 ppm (Pyrenophora teres) of 70 to 79%. For the same molecule, the pest or weed control at 500 ppm (Sphaerotheca fuliginea) was 90 to 100%, the inhibition at 20 ppm (Alternaria alternata) was 90 to 100% and the inhibition at 20 ppm [1] was 90 to 100%.
For `Cc1ccc(C(F)(F)CNC(=O)c2cc(Cl)nnc2Oc2cccc(C(F)(F)F)c2)c(C)c1` [I-014, 6-chloro-N-[2-(2,4-dimethylphenyl)-2,2-difluoro-ethyl]-3-[3-(trifluoromethyl)phenoxy]pyridazine-4-carboxamide], the pest or weed control at 500 ppm (Alternaria brassicae) was 90 to 100%, the pest or weed control at 500 ppm (Botrytis cinerea) was 90 to 100% and the pest or weed control at 500 ppm (Pyrenophora teres) was 70 to 79%. It also gave a pest or weed control at 500 ppm (Sphaerotheca fuliginea) of 90 to 100%, an inhibition at 20 ppm (Alternaria alternata) of 90 to 100% and an inhibition at 20 ppm [1] of 90 to 100%.
In the case of `Cc1ccc(C(F)(F)CNC(=O)c2c(Oc3cccc(C(F)(F)F)c3)nnc(Cl)c2NC2CC2C2CC2)c(C)c1` (centres unmarked) [I-812], the LogP ([2]; method [a]) was 4.87^[a].
For `Cc1ccc(C(F)(F)CNC(=O)c2c(Oc3cccc(C(F)(F)F)c3)nnc(Cl)c2I)c(C)c1` [I-020, 6-chloro-N-[2-(2,4-dimethylphenyl)-2,2-difluoro-ethyl]-5-iodo-3-[3-(trifluoromethyl)phenoxy]pyridazine-4-carboxamide], the pest or weed control at 500 ppm (Alternaria brassicae) was 90 to 100%, the pest or weed control at 500 ppm (Botrytis cinerea) was 90 to 100% and the pest or weed control at 500 ppm (Pyrenophora teres) was 80 to 89%. It also gave a pest or weed control at 500 ppm (Sphaerotheca fuliginea) of 90 to 100%, an inhibition at 20 ppm (Alternaria alternata) of 90 to 100% and an inhibition at 20 ppm [1] of 90 to 100%.
For `Cc1ccc(C(F)(F)CNC(=O)c2cc(I)nnc2Oc2cccc(C(F)(F)F)c2)c(C)c1` [I-461, N-[2-(2,4-dimethylphenyl)-2,2-difluoro-ethyl]-6-iodo-3-[3-(trifluoromethyl)phenoxy]pyridazine-4-carboxamide], the pest or weed control at 500 ppm (Alternaria brassicae) was 90 to 100%, the pest or weed control at 500 ppm (Botrytis cinerea) was 90 to 100% and the pest or weed control at 500 ppm (Pyrenophora teres) was 80 to 89%. It also gave a pest or weed control at 500 ppm (Sphaerotheca fuliginea) of 90 to 100%, an inhibition at 20 ppm (Alternaria alternata) of 90 to 100% and an inhibition at 20 ppm [1] of 90 to 100%.
